Assay results reported in publication PMC4702177, “Discovering new mTOR inhibitors for cancer treatment through virtual screening methods and in vitro assays” (Scientific Reports, 2016).

Experiments:
[1] = tested on: mTORC1 (phosphorylation of p70S6K and 4E-BP1) in HeLa cells; assay: Western blot of mTORC1 activity; format: cell-based, human; conditions: 2.47 and 5.48 μM
Experimental: In vitro mTOR kinase assay confirmed that 17 did inhibit mTOR kinase activity (Table 1). The mTOR pathway is frequently activated in human cancers (e.g., HeLa and MCF-7). To assure compound 17 inhibits the mTOR pathway inside the cell, western blotting was employed to check the activity of mTORC1 (Complex 1) and mTORC2 (Complex 2). HeLa cell line was selected for western blot analysis after treatment with compound 17 at 2.47 and 5.48 μM; detailed results are shown in Fig. 8.
mTORC1 activity was evaluated by determining the phosphorylation level of its targets, p70S6K and 4E-BP1, in the HeLa cell line. […] Quantitative of the phosphorylation levels of p70SK6 and 4E-BP1 are […] with the concentration of 17 (Fig. 8).
(§1) HeLa cells were cultured in a six-well plate in the presence of compound 17 for 48 h. Samples were prepared by lysing PBS-washed cells with RIPA buffer (Beyotime, Haimen, China) consisting of 1% Nonidet P-40, 0.5% sodium deoxycholate, 0.1% SDS, and 50 mM Tris-HCl, pH 7.4, supplemented with NaF, NaVO4, EDTA and a protease inhibitor cocktail (Roche). Proteins were subjected to SDS-PAGE gel electrophoresis and transferred onto a polyvinylidene difluoride membrane (Hybond-P; GE Healthcare Life Sciences, Piscataway, NJ). […] The densitometry of each band was quantified by FluorChem 8000 (AlphaInnotech, San Leandro, CA).

[2] = tested on: MCF-7 (human breast cancer cell); assay: In vitro cell proliferation assay; format: cell-based; conditions: Homo sapiens, MCF7, 48 h, 48 h, highest concentration 100 μM, read-out: IC50 (anti-proliferative)
Experimental: (§2) Most human breast cancer cells and cervical cancer cells become resistant to current chemotherapeutic drugs due to mutation of apoptotic mechanisms. It has been reported that MCF-7 cells are resistant to most of the drugs approved by the US Food and Drug Administration (FDA), including paclitaxel, doxorubicin, 5-fluorouracil, etoposide, and camptothecin[31][32].
(§3) Cell proliferation was measured with an MTS assay (CellTiter 96 Aqueous ONE Solution kit; Promega, Madison, USA). MCF-7, HeLa, MGC-803, C6 and U87 cells in log-phase were seeded (5 × 10^3 cells/well) in 96-well plates for 24 h, and then the medium were replaced with fresh medium containing different concentrations of compounds. […] After incubation for 48 h, the cells were further incubated with 20 μL of MTS for 1–4 h at 37 °C in a humidified incubator with 5% CO2. The absorbance at 490 nm was measured using a mircoplate reader (Model680, Bio-Rad; Hercules, CA, USA). The inhibition rate (%) was calculated as equation (1): […]
(§4) IC50 values were determined from the results of at least three independent tests and calculated from the inhibition curves.

[3] = tested on: HeLa (human cervical cancer cell); assay: In vitro cell proliferation assay; format: cell-based; conditions: Homo sapiens, 48 h, highest concentration 100 μM, read-out: IC50 (anti-proliferative)
Experimental: as §2, §3, §4

[4] = tested on: MGC-803 (human gastric cancer); assay: In vitro cell proliferation assay; format: cell-based; conditions: Homo sapiens, MGC-803, 48 h, 48 h, highest concentration 100 μM, read-out: IC50 (anti-proliferative)
Experimental: as §2, §3, §4

[5] = tested on: C6 (Glioma cell); assay: In vitro cell proliferation assay; format: cell-based; conditions: C6 glioma, 48 h, highest concentration 100 μM, read-out: IC50 (anti-proliferative)
Experimental: as §2, §3, §4

[6] = target: PIK3C2B (PI3K-C2 beta) (Homo sapiens, UniProt O00750); assay: SelectScreen kinase profiling; format: biochemical; conditions: mean ± SD of triplicate
Description: (§5) To characterize the kinase selectivity of compound 17, we profiled its ability to bind to a panel of 24 structurally related kinases using the SelectScreen Kinase Profiling Service (Life Technologies Corporation, Madison, WI).

[7] = target: PIK3CD/PIK3R1 (p110 delta/p85 alpha) (Homo sapiens, UniProt O00329); assay: SelectScreen kinase profiling; format: biochemical; conditions: mean ± SD of triplicate
Chain of PIK3CD/PIK3R1 (p110 delta/p85 alpha) (O00329 whole entry): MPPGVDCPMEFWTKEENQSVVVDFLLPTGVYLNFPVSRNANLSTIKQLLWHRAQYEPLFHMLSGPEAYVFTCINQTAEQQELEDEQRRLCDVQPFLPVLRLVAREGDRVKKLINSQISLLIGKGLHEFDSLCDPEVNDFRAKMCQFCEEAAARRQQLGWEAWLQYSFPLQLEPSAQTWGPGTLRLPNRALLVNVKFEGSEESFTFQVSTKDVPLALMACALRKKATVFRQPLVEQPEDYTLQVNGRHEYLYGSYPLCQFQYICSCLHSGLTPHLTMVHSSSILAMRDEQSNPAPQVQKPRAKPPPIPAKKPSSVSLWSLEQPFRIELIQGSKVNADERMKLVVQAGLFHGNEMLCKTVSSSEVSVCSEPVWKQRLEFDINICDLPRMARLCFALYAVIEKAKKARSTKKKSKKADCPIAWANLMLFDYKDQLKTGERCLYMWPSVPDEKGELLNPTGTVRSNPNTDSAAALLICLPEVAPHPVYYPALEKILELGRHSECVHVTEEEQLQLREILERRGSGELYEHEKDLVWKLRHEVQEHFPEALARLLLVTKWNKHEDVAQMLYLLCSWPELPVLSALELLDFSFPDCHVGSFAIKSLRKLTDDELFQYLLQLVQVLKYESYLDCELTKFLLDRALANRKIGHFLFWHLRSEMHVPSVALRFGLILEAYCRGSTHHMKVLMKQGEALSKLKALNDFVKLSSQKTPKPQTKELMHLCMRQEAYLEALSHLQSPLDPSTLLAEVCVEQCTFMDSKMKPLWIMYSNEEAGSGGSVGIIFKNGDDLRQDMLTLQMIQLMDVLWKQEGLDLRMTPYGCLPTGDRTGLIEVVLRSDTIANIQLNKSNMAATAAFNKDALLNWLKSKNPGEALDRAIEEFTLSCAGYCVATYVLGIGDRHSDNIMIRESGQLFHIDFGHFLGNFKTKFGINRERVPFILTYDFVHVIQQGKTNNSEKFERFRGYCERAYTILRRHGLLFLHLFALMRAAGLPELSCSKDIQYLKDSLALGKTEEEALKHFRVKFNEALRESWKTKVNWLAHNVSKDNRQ
Chain of PIK3CD/PIK3R1 (p110 delta/p85 alpha) (P27986 whole entry partner): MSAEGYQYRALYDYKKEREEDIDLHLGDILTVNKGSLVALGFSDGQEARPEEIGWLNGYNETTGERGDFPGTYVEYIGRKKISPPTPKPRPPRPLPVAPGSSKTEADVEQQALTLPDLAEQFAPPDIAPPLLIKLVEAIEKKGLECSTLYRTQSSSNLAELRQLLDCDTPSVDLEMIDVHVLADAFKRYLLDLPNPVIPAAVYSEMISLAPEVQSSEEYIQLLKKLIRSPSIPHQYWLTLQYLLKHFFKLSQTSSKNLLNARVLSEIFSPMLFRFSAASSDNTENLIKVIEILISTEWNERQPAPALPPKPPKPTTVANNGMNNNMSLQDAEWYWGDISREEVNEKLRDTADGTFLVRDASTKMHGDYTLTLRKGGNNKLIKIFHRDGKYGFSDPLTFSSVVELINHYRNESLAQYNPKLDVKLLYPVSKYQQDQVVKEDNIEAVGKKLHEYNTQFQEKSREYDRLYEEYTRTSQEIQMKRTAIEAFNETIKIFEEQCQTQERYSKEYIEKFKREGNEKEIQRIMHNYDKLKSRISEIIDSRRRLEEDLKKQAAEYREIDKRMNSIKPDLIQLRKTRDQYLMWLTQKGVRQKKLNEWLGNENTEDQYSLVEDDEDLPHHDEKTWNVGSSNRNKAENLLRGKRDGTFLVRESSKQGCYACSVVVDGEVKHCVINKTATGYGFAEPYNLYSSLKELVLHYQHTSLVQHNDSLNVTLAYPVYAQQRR
Description: as §5

[8] = target: AKT3 (PKB gamma) (Homo sapiens, UniProt Q9Y243); assay: SelectScreen kinase profiling; format: biochemical; conditions: mean ± SD of triplicate
Chain of AKT3 (PKB gamma) (Q9Y243 whole entry): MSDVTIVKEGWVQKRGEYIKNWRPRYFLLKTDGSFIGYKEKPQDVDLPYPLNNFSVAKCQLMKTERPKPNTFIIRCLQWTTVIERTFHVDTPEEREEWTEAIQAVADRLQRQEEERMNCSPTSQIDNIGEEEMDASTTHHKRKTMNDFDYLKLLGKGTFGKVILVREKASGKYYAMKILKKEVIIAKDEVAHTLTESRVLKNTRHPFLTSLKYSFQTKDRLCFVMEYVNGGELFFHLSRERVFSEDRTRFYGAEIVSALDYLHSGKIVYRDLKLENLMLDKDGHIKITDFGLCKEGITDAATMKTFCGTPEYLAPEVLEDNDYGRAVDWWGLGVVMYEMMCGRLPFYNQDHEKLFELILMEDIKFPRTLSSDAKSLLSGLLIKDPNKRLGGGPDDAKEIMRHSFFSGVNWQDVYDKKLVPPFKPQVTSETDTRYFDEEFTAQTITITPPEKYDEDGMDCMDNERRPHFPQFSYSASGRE
Description: as §5

[9] = target: PIK3C2A (PI3K-C2 alpha) (Homo sapiens, UniProt O00443); assay: SelectScreen kinase profiling; format: biochemical; conditions: mean ± SD of triplicate
Chain of PIK3C2A (PI3K-C2 alpha) (O00443 whole entry): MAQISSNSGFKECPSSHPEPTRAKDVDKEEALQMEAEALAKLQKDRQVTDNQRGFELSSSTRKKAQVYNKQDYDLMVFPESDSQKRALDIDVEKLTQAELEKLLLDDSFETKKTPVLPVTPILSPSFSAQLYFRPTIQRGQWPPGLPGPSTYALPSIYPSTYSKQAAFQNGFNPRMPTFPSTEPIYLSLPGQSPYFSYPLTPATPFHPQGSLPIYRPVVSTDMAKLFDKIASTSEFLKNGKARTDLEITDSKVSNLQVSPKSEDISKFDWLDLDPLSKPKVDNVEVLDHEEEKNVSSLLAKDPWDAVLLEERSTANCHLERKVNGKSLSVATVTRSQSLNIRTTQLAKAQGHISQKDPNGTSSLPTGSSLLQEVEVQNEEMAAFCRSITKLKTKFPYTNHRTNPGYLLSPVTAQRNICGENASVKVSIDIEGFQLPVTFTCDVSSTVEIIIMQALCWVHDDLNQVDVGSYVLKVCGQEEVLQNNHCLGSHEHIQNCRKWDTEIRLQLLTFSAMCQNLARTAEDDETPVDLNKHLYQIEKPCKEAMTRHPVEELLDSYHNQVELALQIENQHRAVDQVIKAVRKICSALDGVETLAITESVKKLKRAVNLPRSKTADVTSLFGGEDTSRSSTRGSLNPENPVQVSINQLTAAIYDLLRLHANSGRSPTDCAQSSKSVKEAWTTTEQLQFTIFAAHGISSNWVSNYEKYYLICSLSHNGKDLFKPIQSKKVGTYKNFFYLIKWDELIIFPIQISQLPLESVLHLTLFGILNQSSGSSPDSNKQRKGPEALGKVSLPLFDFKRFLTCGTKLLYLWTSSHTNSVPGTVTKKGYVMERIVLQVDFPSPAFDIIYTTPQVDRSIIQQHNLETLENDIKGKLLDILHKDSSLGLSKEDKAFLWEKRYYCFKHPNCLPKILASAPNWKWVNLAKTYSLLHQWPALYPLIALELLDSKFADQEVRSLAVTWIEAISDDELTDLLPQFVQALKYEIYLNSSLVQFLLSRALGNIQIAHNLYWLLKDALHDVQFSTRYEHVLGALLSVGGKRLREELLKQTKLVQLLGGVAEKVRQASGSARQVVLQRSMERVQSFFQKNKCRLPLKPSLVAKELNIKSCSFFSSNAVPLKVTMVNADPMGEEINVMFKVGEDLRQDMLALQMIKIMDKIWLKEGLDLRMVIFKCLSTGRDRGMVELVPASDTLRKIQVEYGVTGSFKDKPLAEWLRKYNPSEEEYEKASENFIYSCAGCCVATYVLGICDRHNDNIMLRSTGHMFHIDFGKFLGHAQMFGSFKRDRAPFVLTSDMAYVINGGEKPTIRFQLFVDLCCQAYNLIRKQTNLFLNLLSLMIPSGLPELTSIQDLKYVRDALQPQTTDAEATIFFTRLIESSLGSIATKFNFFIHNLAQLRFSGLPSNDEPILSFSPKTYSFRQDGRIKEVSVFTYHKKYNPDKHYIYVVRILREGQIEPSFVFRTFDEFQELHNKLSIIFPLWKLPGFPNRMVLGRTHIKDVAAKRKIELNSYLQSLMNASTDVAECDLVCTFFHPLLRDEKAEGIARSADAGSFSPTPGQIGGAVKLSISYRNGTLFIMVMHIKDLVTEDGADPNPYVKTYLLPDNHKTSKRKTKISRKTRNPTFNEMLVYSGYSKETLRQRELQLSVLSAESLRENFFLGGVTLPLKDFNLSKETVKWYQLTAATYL
Description: as §5

[10] = target: PRKCB1 (PKC beta I) (Homo sapiens, UniProt P05771); assay: SelectScreen kinase profiling; format: biochemical; conditions: mean ± SD of triplicate
Chain of PRKCB1 (PKC beta I) (P05771 whole entry): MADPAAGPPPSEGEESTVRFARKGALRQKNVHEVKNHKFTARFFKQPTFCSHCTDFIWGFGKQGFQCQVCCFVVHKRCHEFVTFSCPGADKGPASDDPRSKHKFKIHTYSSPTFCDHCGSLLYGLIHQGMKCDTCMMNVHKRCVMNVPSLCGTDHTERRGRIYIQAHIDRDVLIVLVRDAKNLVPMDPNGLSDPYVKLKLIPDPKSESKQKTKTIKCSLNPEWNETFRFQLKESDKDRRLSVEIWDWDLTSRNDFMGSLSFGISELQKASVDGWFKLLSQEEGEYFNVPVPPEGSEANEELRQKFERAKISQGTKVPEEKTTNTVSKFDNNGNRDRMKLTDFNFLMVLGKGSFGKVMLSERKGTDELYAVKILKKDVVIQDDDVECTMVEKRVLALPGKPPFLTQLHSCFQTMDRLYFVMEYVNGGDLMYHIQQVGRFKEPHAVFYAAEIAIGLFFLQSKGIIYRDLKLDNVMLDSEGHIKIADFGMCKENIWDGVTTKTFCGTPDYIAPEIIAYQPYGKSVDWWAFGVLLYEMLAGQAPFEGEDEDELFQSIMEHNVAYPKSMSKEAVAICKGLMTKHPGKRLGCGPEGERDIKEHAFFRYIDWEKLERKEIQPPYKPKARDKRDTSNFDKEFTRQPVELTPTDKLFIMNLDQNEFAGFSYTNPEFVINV
Description: as §5

[11] = tested on: HeLa cells; assay: Quantification of apoptotic cells (Hoechst 33342 staining); format: cell-based, human; conditions: 24 hours (control 1.9%)
Experimental: To elucidate the mechanisms of cell death induced by 17, we analyzed the effect of 17 on nuclear morphology using Hoechst 33342 staining. […] This observation allowed for clear discrimination of treated cells from untreated non-apoptotic HeLa cells, which have a normal, round, and unpunctuated nucleus. […] The percentage of apoptotic HeLa cells were 6.5% and 7.7% at the concentrations of 2.74 and 5.48 μM, respectively (Fig. 6d). To further confirm the nuclear morphology observation, Western blotting was used to detect caspase-3 activation and PARP cleavage, two biochemical markers of apoptosis. […] The induction of apoptosis is positively correlated with the concentration of compound 17.
[…] Then, the cells were collected, washed with PBS, and fixed in 4% paraformaldehyde for 15 min at room temperature. Finally, the samples were stained with Hoechst33342 (10 μg/mL) for 5 min. Stained nuclei were photographed under a fluorescence microscope with a 20× objective (Nikon).

[12] = tested on: mTORC2 (Akt phosphorylation on Ser473) in HeLa cells; assay: Western blot of mTORC2 activity; format: cell-based, human
Experimental: Accordingly, we checked mTORC2 activity by measuring Akt phosphorylation levels on Ser473 in HeLa cells. […] In other words, the mechanism of HeLa cell death induced by 17 was apoptosis, and induction was achieved by targeting both mTORC1 and mTORC2 simultaneously.
as §1, with “NJ). Immunoblotting was performed using rabbit monoclonal antibodies (Cell Signaling Technology; Danvers, MA) against p70S6K1 phosphorylated on Thr 389 (#9234) and total p70S6K1 (#2708), 4E-BP1 phosphorylated on Thr 37 (#2855) and total 4E-BP1 (#9452), Akt phosphorylated on Thr 308 (#4056) or Ser 473 (#4060) and total Akt (#4685), cleaved caspase-3 (#9664), PARP (#9532), and β-actin (#3700).” for “NJ).”

[13] = tested on: PI3K pathway (Akt phosphorylation on Thr308) in HeLa cells; assay: Western blot of PI3K pathway; format: cell-based, human; conditions: compared with the controls
Experimental: To evaluate whether compound 17 inhibits the PI3K pathway, the Akt phosphorylation level on Thr308 was determined.
as §1, with “NJ). Immunoblotting was performed using rabbit monoclonal antibodies (Cell Signaling Technology; Danvers, MA) against p70S6K1 phosphorylated on Thr 389 (#9234) and total p70S6K1 (#2708), 4E-BP1 phosphorylated on Thr 37 (#2855) and total 4E-BP1 (#9452), Akt phosphorylated on Thr 308 (#4056) or Ser 473 (#4060) and total Akt (#4685), cleaved caspase-3 (#9664), PARP (#9532), and β-actin (#3700).” for “NJ).”

IC50 [2]: 1.9 µM
IC50 [3]: 2.74 µM
IC50 [4]: 3.5 µM
IC50 [5]: 11.1 µM
inhibition at 10 µM [6]: 39.3 ± 7.29%
inhibition at 10 µM [7]: 41.4 ± 0.63%
inhibition at 10 µM [8]: 11.7 ± 0.37%
inhibition at 10 µM [9]: 28.6 ± 1.96%
inhibition at 10 µM [10]: 9.54 ± 0.09%
Structure (SMILES): Nc1nn2c(nc(N)c3c(N)n[nH]c32)c1/N=N/c1ccccc1 [Compound 17]
phosphorylation level of 4E-BP1 [1]: suppressed
phosphorylation level of p70S6K [1]: suppressed
% of apoptotic cells ([11]; 2.74 μM): 6.5%
% of apoptotic cells ([11]; 5.48 μM): 7.7%
P-Akt Ser473 [12]: can reduce P-Akt Ser473
P-Akt Thr308 [13]: not affected
